# “And” between values parts separate entries of the source, which are not always exact repeats. Identical values can stand only once. Like-named read-outs stand apart in the source and are kept apart here.
# Tests used:
# [1] = test system: monoclonal anti-digoxin antibody Dig 25-54 (IgG1); assay: Affinity determination, [3H]digoxin dextran-coated charcoal RIA; assay type: binding, mouse (A/J); conditions: for Kd: 60 min, read-out: Affinity Constant K0 for digoxin (converted)
# Description: (§1) Using the dextran coated charcoal binding method for separation of bound antibody from free H^3 -digoxin (Smith, J. Clin. Invest. 51:1583 (1972)), affinities (Ko) for monoclonal anti-digoxin antibodies were determined for antibody present in culture media and in preparations purified from ascites. Data were plotted according to a modified Sips equation (Nisonoff et al, J. Immunol. 80:417 (1958)), as described earlier herein. Typical of single component systems, a linear plot was obtained for all hybridomas analyzed. Correlation coefficients (r) varied from 0.989 to 0.999 for the monoclonal antibodies analyzed by this method. As anticipated, no significant difference was found for affinity constants determined for antibody present in culture media and in preparations following purification from ascites fluid (Table III).
# [2] = molecular target: monoclonal anti-digoxin antibody Dig 26-10 (IgG2a); assay: as above; assay type: binding, mouse (A/J); conditions: for Kd: 60 min, read-out: Affinity Constant K0 for digoxin (converted)
# Description: as §1
# [3] = molecular target: monoclonal anti-digoxin antibody Dig 26-20 (IgG2a); assay: as above; assay type: binding, mouse (A/J); conditions: 60 min, read-out: Affinity Constant K0 for digoxin (converted)
# Description: as §1
# [4] = molecular target: monoclonal anti-digoxin antibody Dig 26-30 (IgG2a); assay: as above; assay type: binding, mouse (A/J); conditions: 60 min, read-out: Affinity Constant K0 for digoxin (converted)
# Description: as §1
# [5] = molecular target: monoclonal anti-digoxin antibody Dig 26-40 (IgG2a); assay: as above; assay type: binding, mouse (A/J); conditions: 60 min, read-out: Affinity Constant K0 for digoxin (converted)
# Description: as §1
# [6] = test system: monoclonal anti-digoxin antibody Dig 35-20 (IgG1); assay: as above; assay type: binding, mouse (A/J); conditions: for Kd: 60 min, read-out: Affinity Constant K0 for digoxin (converted)
# Description: as §1
# [7] = test system: heterogeneous anti-digoxin antibody, Sheep Antisera; assay: as above; assay type: binding; conditions: antibody source: serum; 60 min; read-out: Affinity Constant K0 for digoxin (converted)
# Description: (§2) Antisera specific for digoxin was prepared in sheep as previously described by Curd et al, Proc. Nat. Acad. Sci. 65: 2401 (1971). High affinity antidigoxin sheep antisera was used in the clinical RIA for digoxin (described below).
# [8] = molecular target: heterogeneous anti-digoxin antibody, Pooled mouse antibody; assay: as above; assay type: binding, mouse (A/J); conditions: antibody source: serum; 60 min; read-out: Affinity Constant K0 for digoxin (converted)
# Description: (§3) A pool of mouse antidigoxin antibody was prepared from immune sera as follows. A/J mice immunized with Dig-HSA as described above, were bled from the tail on the 3rd or 4th week following intraperitoneal injection of antigen. Their sera were pooled and the antidigoxin antibodies were purified from the sera by affinity chromatography as described below. This antibody preparation was used as a standard antidigoxin reagent in the PVC-plate RIA (described below).
# [9] = test system: heterogeneous anti-digoxin antibody, Pooled mouse antisera; assay: as above; assay type: binding, mouse (A/J); conditions: antibody source: serum; 60 min; read-out: Affinity Constant K0 for digoxin (converted)
# Description: as §3
# [10] = molecular target: monoclonal anti-digoxin antibody Dig 26-10; assay: Affinity constant by equilibrium dialysis; assay type: binding, mouse (A/J); conditions: confirmed by equilibrium dialysis
# Source text: The affinity constant determined for Dig 26-10 (approximately 10^9 M^-1) was confirmed by equilibrium dialysis. […] The Ko determined for Dig 35-20 was also high, 1.3-3.4×10^9 M^-1.
# [11] = test system: monoclonal anti-digoxin antibody Dig 25-54; assay: Specificity determination, inhibition of [3H]digoxin binding in dextran charcoal RIA; set-up: species or system mouse (A/J); conditions: inhibition of antibody binding to [3H]digoxin
# Description: (§4) The specificity of each antidigoxin antibody for related cardiac glycosides was assessed by the inhibition of binding of antibody in the dextran charcoal radioimmunoassay Smith (1972), supra. To a constant amount of H^3 -digoxin (1.5 ng) in 1 ml of buffer is added different amounts ([…]) of various cardiac glycosides: digoxin, digitoxin, digitoxigenin, digoxigenin, acetyl-strophanthidin, ouabain, deslanoside, and endogenous steroids such as chloresterol, cortisol, androsterone, 17-[beta]-estradiol, progesterone, and testosterone. After 5 minutes, a constant amount of anti-digoxin antibody was added and the assay was continued as described above. Comparison among different antidigoxin antibodies with respect to their fine specificity was made by determining the amount of cardiac glycoside required to achieve 50% inhibition relative to that required for cold digoxin.
# (§5) Specificity of monoclonal antibody binding site for related cardiac glycosides was examined by means of hapten inhibition experiments in which the binding of monoclonal antibody to H^3 -digoxin was inhibited by cold digoxin and related cardiac glycosides.
# [12] = test system: monoclonal anti-digoxin antibody Dig 26-10; assay: as above; set-up: species or system mouse (A/J); conditions: inhibition of antibody binding to [3H]digoxin
# Description: as §4, §5
# [13] = test system: monoclonal anti-digoxin antibody Dig 26-20; assay: as above; set-up: species or system mouse (A/J); conditions: inhibition of antibody binding to [3H]digoxin
# Description: as §4, §5
# [14] = test system: monoclonal anti-digoxin antibody Dig 26-30; assay: as above; set-up: species or system mouse (A/J); conditions: inhibition of antibody binding to [3H]digoxin
# Description: as §4, §5
# [15] = test system: monoclonal anti-digoxin antibody Dig 26-40; assay: as above; set-up: species or system mouse (A/J); conditions: inhibition of antibody binding to [3H]digoxin
# Description: as §4, §5
# [16] = test system: monoclonal anti-digoxin antibody Dig 35-20; assay: as above; set-up: species or system mouse (A/J); conditions: inhibition of antibody binding to [3H]digoxin
# Description: as §4, §5
# [17] = test system: Sheep Anti-Dig Serum (heterogeneous anti-digoxin antiserum); assay: as above; conditions: inhibition of antibody binding to [3H]digoxin
# Description: as §2, §4, §5
# [18] = molecular target: Fab fragment of monoclonal anti-digoxin antibody Dig 26-10; assay: Affinity determination, [3H]digoxin dextran-coated charcoal RIA; conditions: read-out: Affinity Constant K0 for digoxin, Fab of Dig 26-10, 60 min
structure (smiles),measurement,setting,value
C[C@H]1O[C@@H](O[C@H]2[C@@H](O)C[C@H](O[C@H]3[C@@H](O)C[C@H](O[C@H]4CC[C@@]5(C)[C@H](CC[C@@H]6[C@@H]5C[C@@H](O)[C@]5(C)[C@@H](C7=CC(=O)OC7)CC[C@]65O)C4)O[C@@H]3C)O[C@@H]2C)C[C@H](O)[C@@H]1O [Digoxin],Ko for digoxin,[1],3.5 to 5.2 ×10^8 M^-1
same,apparent affinity Ko for digoxin,[1],< 10^8 M^-1
same,Kd,[1]; antibody purified from ascites,1.92 nM
same,Kd,[1]; antibody source: culture media,3.85 nM
same,Kd,[2]; antibody purified from ascites,0.213 nM
same,Kd,[2]; antibody source: culture media,0.118 nM
same,"Ko for digoxin, average value for the intact antibody",[2]; intact antibody,< 5×10^9
same,Kd,[3]; antibody purified from ascites,0.294 nM
same,Kd,[3]; antibody source: culture media,0.714 nM
same,Kd,[4]; antibody purified from ascites,0.172 nM
same,Kd,[4]; antibody source: culture media,0.256 nM
same,Kd,[5]; antibody purified from ascites,0.385 nM
same,Kd,[5]; antibody source: culture media,0.227 nM
same,Ko for digoxin,[6],1.3-3.4×10^9 M^-1
same,Kd,[6]; antibody purified from ascites,0.769 nM
same,Kd,[6]; antibody source: culture media,0.526 nM
same,Kd,[7],0.0833 nM
same,Kd,[8],0.286 nM
same,Kd,[9],0.323 nM
same,Kd,[10],~1 nM
same,amount of inhibitor required to give 50% inhibition relative to the amount of digoxin which gave 50% inhibition,[11],1.0
same,amount of inhibitor required to give 50% inhibition relative to the amount of digoxin which gave 50% inhibition,[12],1.0
same,amount of inhibitor required to give 50% inhibition relative to the amount of digoxin which gave 50% inhibition,[13],1.0
same,amount of inhibitor required to give 50% inhibition relative to the amount of digoxin which gave 50% inhibition,[14],1.0
same,amount of inhibitor required to give 50% inhibition relative to the amount of digoxin which gave 50% inhibition,[15],1.0
same,amount of inhibitor required to give 50% inhibition relative to the amount of digoxin which gave 50% inhibition,[16],1.0
same,amount of inhibitor required to give 50% inhibition relative to the amount of digoxin which gave 50% inhibition,[17],1.0
same,Kd,[18],0.833 nM and 1 nM
